From patent US20130053330A1, “Fertilization Prediction and Promotion” (Karolinska Institutet Innovations AB, priority 2010, published 2013)
Peptide text beside a SMILES is read from it.

Assays:
[1] = tested on: Human endometrial endothelial (HEE) cells; test: Chemotaxis (migration) assay in modified Boyden chamber, HEE cells; type: cell-based; settings: VEGF 10 ng/ml; for inhibition of VEGF-induced migration of HEE cells: 100 ng/ml in lower chamber, 4-6 h at 37° C.
Method: By using a proliferation and a migration (chemotaxis) assay the importance of HRG as well as HRG peptides was analyzed. The peptides used correspond to a fragment of full-length HRG containing 35 amino acids covering position 204 in the protein; the proline of native HRG in that specific position is changed to serine. The amino acid sequences are: […] NO: 7, named HRGPro herein) and […] NO: 8, named […] herein); the peptides were produced and purchased from Innovagen, Lund, Sweden. The assay was performed in a modified Boyden chamber using micropore nitrocellulose filters (8 μm thick, 8 μm pore) coated with type-1 collagen solution at 100 μg/ml (Vitrogen 100, Collagen Corp.). Cells (G10 and HEEC cells) were trypsinized and resuspended at a concentration of 5.5×10^5 cells/ml in serum-free culture medium containing 0.25% fetal calf serum (FCS). […] After 4-6 h at 37° C., the medium was removed and the cells sticking to the filter were fixed in pure methanol and stained with Giemsa stain. The cells that had migrated through the filter were counted. The effects of HRG, HRGPro and […] on migration of G10 and HEE cells were examined by using a Boyden chamber.

[2] = tested on: Human endometrial endothelial (HEE) cells; test: Cell proliferation assay, HEE cells; type: cell-based; settings: 100 ng/ml; starvation medium with 0.25% FCS; cell numbers scored after 5 days
Method: (§1) By using a proliferation and a migration (chemotaxis) assay the importance of HRG as well as HRG peptides was analyzed. The peptides used correspond to a fragment of full-length HRG containing 35 amino acids covering position 204 in the protein; the proline of native HRG in that specific position is changed to serine. The amino acid sequences are: […] NO: 7, named HRGPro herein) and […] NO: 8, named […] herein); the peptides were produced and purchased from Innovagen, Lund, Sweden. Cells (G10 and HEEC) in culture medium supplemented with 10% FCS were seeded into 24-well dishes. After 2 h the medium was changed to starvation medium (culture medium containing 0.25% FCS) and the incubation continued for an additional 24 h. The medium was changed again at day 2 and day 4 (starvation medium), and at the same time FGF-2 or VEGF, HRG or HRG Pro or Ser containing peptide were added. As a control, cells were cultured in basal culture medium supplemented with 10% FCS. Cell numbers were scored after 5 days. Human endometrial endothelial (HEE) cells were cultured in starvation medium containing culture medium (3 H) supplemented with 0.25% FCS.

[3] = tested on: G10 cells (Porcine aortic endothelial cells); test: Chemotaxis (migration) assay in modified Boyden chamber, G10 cells; type: cell-based, pig; settings: for inhibition of VEGF-induced migration of G10 cells: 100 ng/ml in lower chamber, 4-6 h at 37° C.
Method: By using a proliferation and a migration (chemotaxis) assay the importance of HRG as well as HRG peptides was analyzed. The peptides used correspond to a fragment of full-length HRG containing 35 amino acids covering position 204 in the protein; the proline of native HRG in that specific position is changed to serine. The amino acid sequences are: […] (SEQ ID NO: 7, named HRGPro herein) and […] (SEQ ID NO: 8, named HRGSer herein); the peptides were produced and purchased from Innovagen, Lund, Sweden.
The assay was performed in a modified Boyden chamber using micropore nitrocellulose filters (8 μm thick, 8 μm pore) coated with type-1 collagen solution at 100 μg/ml (Vitrogen 100, Collagen Corp.). Cells (G10 and HEEC cells) were trypsinized and resuspended at a concentration of 5.5×10^5 cells/ml in serum-free culture medium containing 0.25% fetal calf serum (FCS). The cell suspension was placed in the upper chamber, and the serum-free medium containing 0.25% FCS and FGF-2 or VEGF, HRG or the HRGPro or HRGSer peptide, was placed below the filter in the lower chamber. As a positive control, medium containing 10% FCS was added to the lower chamber. After 4-6 h at 37° C., the medium was removed and the cells sticking to the filter were fixed in pure methanol and stained with Giemsa stain. The cells that had migrated through the filter were counted.
The effects of HRG, HRGPro and HRGSer on migration of G10 and HEE cells were examined by using a Boyden chamber.

[4] = tested on: G10 cells (Porcine aortic endothelial cells); settings: 100 ng/ml; starvation medium (Ham's F12, 0.25% FCS); cell numbers scored after 5 days
Method: as §1, with “G10 cells (Porcine aortic” for “Human endometrial”, “cells)” for “(HEE) cells”, “(Ham's F12)” for “(3 H)”

## CC(C)[C@H](NC(=O)[C@H](CC(N)=O)NC(=O)[C@@H]1CCCN1C(=O)[C@H](Cc1c[nH]cn1)NC(=O)[C@H](CCCNC(=N)N)NC(=O)[C@@H]1CCCN1C(=O)[C@H](Cc1ccccc1)NC(=O)[C@H](Cc1c[nH]cn1)NC(=O)[C@H](Cc1c[nH]cn1)NC(=O)[C@H](CCCNC(=N)N)NC(=O)[C@H](CO)NC(=O)[C@H](CS)NC(=O)[C@H](CC(N)=O)NC(=O)[C@H](CCCNC(=N)N)NC(=O)[C@@H](NC(=O)[C@H](CO)NC(=O)[C@H](Cc1ccccc1)NC(=O)[C@H](CC(=O)O)NC(=O)[C@@H](NC(=O)[C@H](Cc1ccccc1)NC(=O)[C@H](Cc1ccc(O)cc1)NC(=O)CNC(=O)[C@@H](NC(=O)CNC(=O)[C@H](CCC(=O)O)NC(=O)CNC(=O)CNC(=O)[C@@H](N)CCCNC(=N)N)[C@@H](C)O)C(C)C)C(C)C)C(=O)N[C@@H](Cc1ccccc1)C(=O)NCC(=O)N[C@@H](Cc1ccccc1)C(=O)N[C@@H](CS)C(=O)N[C@@H](CCCNC(=N)N)C(=O)N[C@@H](C)C(=O)N[C@@H](CC(=O)O)C(=O)O [HRGSer] (H-RGGEGTGYFVDFSVRNCSRHHFPRHPNVFGFCRAD-OH; N-terminus and C-terminus assumed)
[1]
  inhibition of VEGF-induced migration of HEE cells: inhibited significantly
[2]
  increase in number of HEE cells compared with culture in starvation medium: 86%
[3]
  inhibition of VEGF-induced migration of G10 cells: inhibited significantly

## VEGF [reference compound]
[1]
  induction of migration of HEE cells: induced migration

## FGF: Fibroblast Growth Factor, used to induce migration of G10 cells [reference compound]
[3]; FGF 20 ng/ml
  induction of migration of G10 cells: induced migration

## CC(C)[C@H](NC(=O)[C@H](CC(N)=O)NC(=O)[C@@H]1CCCN1C(=O)[C@H](Cc1c[nH]cn1)NC(=O)[C@H](CCCNC(=N)N)NC(=O)[C@@H]1CCCN1C(=O)[C@H](Cc1ccccc1)NC(=O)[C@H](Cc1c[nH]cn1)NC(=O)[C@H](Cc1c[nH]cn1)NC(=O)[C@H](CCCNC(=N)N)NC(=O)[C@@H]1CCCN1C(=O)[C@H](CS)NC(=O)[C@H](CC(N)=O)NC(=O)[C@H](CCCNC(=N)N)NC(=O)[C@@H](NC(=O)[C@H](CO)NC(=O)[C@H](Cc1ccccc1)NC(=O)[C@H](CC(=O)O)NC(=O)[C@@H](NC(=O)[C@H](Cc1ccccc1)NC(=O)[C@H](Cc1ccc(O)cc1)NC(=O)CNC(=O)[C@@H](NC(=O)CNC(=O)[C@H](CCC(=O)O)NC(=O)CNC(=O)CNC(=O)[C@@H](N)CCCNC(=N)N)[C@@H](C)O)C(C)C)C(C)C)C(=O)N[C@@H](Cc1ccccc1)C(=O)NCC(=O)N[C@@H](Cc1ccccc1)C(=O)N[C@@H](CS)C(=O)N[C@@H](CCCNC(=N)N)C(=O)N[C@@H](C)C(=O)N[C@@H](CC(=O)O)C(=O)O [HRGPro] (H-RGGEGTGYFVDFSVRNCPRHHFPRHPNVFGFCRAD-OH; N-terminus and C-terminus assumed)
[1]
  inhibition of VEGF-induced migration of HEE cells: A tendency
[2]
  increase in number of HEE cells compared with culture in starvation medium: 13%
[3]
  inhibition of VEGF-induced migration of G10 cells: A tendency

B1: Histidine-rich glycoprotein (protein)
chain: VSPTDCSAVEPEAEKALDLINKRRRDGYLFQLLRIADAHLDRVENTTVYYLVLDVQESDCSVLSRKYWNDCEPPDSRRPSEIVIGQCKVIATRHSHESQDLRVIDFNCTTSSVSSALANTKDSPVLIDFFEDTERYRKQANKALEKYKEENDDFASFRVDRIERVARVRGGEGTGYFVDFSVRNCPRHHFPRHPNVFGFCRADLFYDVEALDLESPKNLVINCEVFDPQEHENINGVPPHLGHPFHWGGHERSSTTKPPFKPHGSRDHHHPHKPHEHGPPPPPDERDHSHGPPLPQGPPPLLPMSCSSCQHATFGTNGAQRHSHNNNSSDLHPHKHHSHEQHPHGHHPHAHHPHEHDTHRQHPHGHHPHGHHPHGHHPHGHHPHGHHPHCHDFQDYGPCDPPPHNQGHCCHGHGPPPGHLRRRGPGKGPRPFHCRQIGSVYRLPPLRKGEVLPLPEANFPSFPLPHHKHPLKPDNQPFPQSVSESCPGKFKSGFPQVSMFFTHTFPK
[1]
  inhibition of VEGF-induced migration of HEE cells: A tendency
[4]
  inhibition of proliferation of G10 cells (decrease compared with culture in starvation medium): 24%
[2]
  increase in number of HEE cells compared with culture in starvation medium: 6%
[3]
  inhibition of VEGF-induced migration of G10 cells: A tendency
